In the NIST ThermoML archive (doi:10.1016/j.jct.2016.03.026):

Assay: xn = mol fraction of the nth substance listed
Conditions: 263.15 K, Fluid (supercritical or subcritical phases), Vibrating tube method, x1 = 0.97

O=C=O [carbon dioxide] + CO
Conditions	mass density [kg/m3]
13625 kPa	1031.69
13650 kPa	1031.77
13675 kPa	1031.94
13700 kPa	1031.97
13725 kPa	1032.1
13750 kPa	1032.18
13775 kPa	1032.26
13800 kPa	1032.34
13825 kPa	1032.42
13850 kPa	1032.53
13875 kPa	1032.61
13900 kPa	1032.75
13925 kPa	1032.83
13950 kPa	1032.91
13975 kPa	1032.99
14000 kPa	1033.08
14025 kPa	1033.16
14050 kPa	1033.24
14075 kPa	1033.38
14100 kPa	1033.48
14125 kPa	1033.57
14150 kPa	1033.65
14175 kPa	1033.73
14200 kPa	1033.81
14225 kPa	1033.9
14250 kPa	1033.97
14275 kPa	1034.13
14300 kPa	1034.22
14325 kPa	1034.3
14350 kPa	1034.38
14375 kPa	1034.46
14400 kPa	1034.54
14425 kPa	1034.62
14450 kPa	1034.7
14475 kPa	1034.86
14500 kPa	1034.95
14525 kPa	1035.03
14550 kPa	1035.11
14575 kPa	1035.19
14600 kPa	1035.28
14625 kPa	1035.36
14650 kPa	1035.44
14675 kPa	1035.52
14700 kPa	1035.62
14725 kPa	1035.77
14750 kPa	1035.83
14775 kPa	1035.93
14800 kPa	1036.01
14825 kPa	1036.09
14850 kPa	1036.17
14875 kPa	1036.25
14900 kPa	1036.34
14925 kPa	1036.42
14950 kPa	1036.51
14975 kPa	1036.63
15000 kPa	1036.74
15025 kPa	1036.78
15050 kPa	1036.9
15075 kPa	1036.96
15100 kPa	1037.07
15125 kPa	1037.15
15150 kPa	1037.23
15175 kPa	1037.31
15200 kPa	1037.39
15225 kPa	1037.5
15250 kPa	1037.56
15275 kPa	1037.66
15300 kPa	1037.72
15325 kPa	1037.8
15350 kPa	1037.91
15375 kPa	1038.01
15400 kPa	1038.07
15425 kPa	1038.19
15450 kPa	1038.28
15475 kPa	1038.37
15500 kPa	1038.45
15525 kPa	1038.53
15550 kPa	1038.61
15575 kPa	1038.7
15600 kPa	1038.78
15625 kPa	1038.86
15650 kPa	1038.94
15675 kPa	1039.02
15700 kPa	1039.1
15725 kPa	1039.19
15750 kPa	1039.26
15775 kPa	1039.35
15800 kPa	1039.43
15825 kPa	1039.51
15850 kPa	1039.61
15875 kPa	1039.7
15900 kPa	1039.79
15925 kPa	1039.88
15950 kPa	1039.97
15975 kPa	1040.06
16000 kPa	1040.16
16025 kPa	1040.2
16050 kPa	1040.31
16075 kPa	1040.4
16100 kPa	1040.49
16125 kPa	1040.57
16150 kPa	1040.65
16175 kPa	1040.73
16200 kPa	1040.81
16225 kPa	1040.89
16250 kPa	1040.97
16275 kPa	1041.05
16300 kPa	1041.16
16325 kPa	1041.25
16350 kPa	1041.32
16375 kPa	1041.38
16400 kPa	1041.46
16425 kPa	1041.59
16450 kPa	1041.66
16475 kPa	1041.72
16500 kPa	1041.79
16525 kPa	1041.91
16550 kPa	1041.95
16575 kPa	1042.08
16600 kPa	1042.19
16625 kPa	1042.27
16650 kPa	1042.33
16675 kPa	1042.38
16700 kPa	1042.51
16725 kPa	1042.57
16750 kPa	1042.68
16775 kPa	1042.75
16800 kPa	1042.82
16825 kPa	1042.91
16850 kPa	1043.01
16875 kPa	1043.08
16900 kPa	1043.17
16925 kPa	1043.24
16950 kPa	1043.33
16975 kPa	1043.4
17000 kPa	1043.49
17025 kPa	1043.57
17050 kPa	1043.64
17075 kPa	1043.74
17100 kPa	1043.82
17125 kPa	1043.9
17150 kPa	1043.98
17175 kPa	1044.06
17200 kPa	1044.14
17225 kPa	1044.22
17250 kPa	1044.31
17275 kPa	1044.39
17300 kPa	1044.44
17325 kPa	1044.55
17350 kPa	1044.63
17375 kPa	1044.71
17400 kPa	1044.79
17425 kPa	1044.87
17450 kPa	1044.94
17475 kPa	1045.04
17500 kPa	1045.12
17525 kPa	1045.2
17550 kPa	1045.28
17575 kPa	1045.33
17600 kPa	1045.44
17625 kPa	1045.52
17650 kPa	1045.61
17675 kPa	1045.69
17700 kPa	1045.77
17725 kPa	1045.81
17750 kPa	1045.89
17775 kPa	1045.97
17800 kPa	1046.04
17825 kPa	1046.11
17850 kPa	1046.26
17875 kPa	1046.32
17900 kPa	1046.37
17925 kPa	1046.44
17950 kPa	1046.51
17975 kPa	1046.58
18000 kPa	1046.66
18025 kPa	1046.79
18050 kPa	1046.85
18075 kPa	1046.9
18100 kPa	1046.98
18125 kPa	1047.07
18150 kPa	1047.15
18175 kPa	1047.23
18200 kPa	1047.31
18225 kPa	1047.37
18250 kPa	1047.47
18275 kPa	1047.55
18300 kPa	1047.62
18325 kPa	1047.69
18350 kPa	1047.75
18375 kPa	1047.82
18400 kPa	1047.88
18425 kPa	1047.96
18450 kPa	1048.04
18475 kPa	1048.11
18500 kPa	1048.2
18525 kPa	1048.28
18550 kPa	1048.31
18575 kPa	1048.43
18600 kPa	1048.53
18625 kPa	1048.58
18650 kPa	1048.64
18675 kPa	1048.74
18700 kPa	1048.83
18725 kPa	1048.85
18750 kPa	1048.93
18775 kPa	1048.93
18800 kPa	1049.06
18825 kPa	1049.09
18850 kPa	1049.34
18875 kPa	1049.42
18900 kPa	1049.5
18925 kPa	1049.58
18950 kPa	1049.66
18975 kPa	1049.74
19000 kPa	1049.82
19025 kPa	1049.91
19050 kPa	1049.99
19075 kPa	1050.07
19100 kPa	1050.15
19125 kPa	1050.23
19150 kPa	1050.31
19175 kPa	1050.39
19200 kPa	1050.47
19225 kPa	1050.56
19250 kPa	1050.63
19275 kPa	1050.72
19300 kPa	1050.8
19325 kPa	1050.88
19350 kPa	1050.96
19375 kPa	1051.04
19400 kPa	1051.12
19425 kPa	1051.21
19450 kPa	1051.29
19475 kPa	1051.35
19500 kPa	1051.45
19525 kPa	1051.53
19550 kPa	1051.58
19575 kPa	1051.69
19600 kPa	1051.77
19625 kPa	1051.83
19650 kPa	1051.89
19675 kPa	1052.02
